In data set [1] the test system is ob/ob mice. Nature of the data set: serum glucose, triglycerides and T4 in ob/ob mice, drug mixed in control diet over 7 days. As to conditions: 2.5 mg/kg per day in diet. The data set is classed as in vivo.
The subject of data set [2] is ob/ob mice. Nature of the data set: serum glucose, triglycerides and T4 in diabetic mice, oral gavage in corn oil daily for seven days. The data set is classed as in vivo. The settings on record: for Glucose Day 0 / Triglycerides Day 0: day 0 (pre-treatment).
The mark [3] stands for this setting: 4 mg/kg, corn oil vehicle (second Table 9).
Setting [4] is: 5 mg/kg, corn oil vehicle (Table 7).

Structures are written as SMILES.

`CC(/C=C/[C@@H]1C[C@]1(C)c1ccc2c(c1)C(C)(C)CCC2(C)C)=C\C(=O)O` [Standard compound, (2E,4E,1′S,2′S)-3-methyl-5-[2′-methyl-2′-(5,5,8,8-tetramethyl-5,6,7,8-tetrahydro-naphthalen-2-yl)-cyclopropyl]-penta-2,4-dienoic acid]: in the data set with ob/ob mice [1], the “Glucose Day 3, 3 h” value was determined as 107 mg/dL; the “Glucose Day 6, 3 h” value is 136 mg/dL; the “T4 Day 7” value stood at 0.8 µg/dL; the “Triglycerides Day 3, 3 h” value came out at 55 ± 23 mg/dL. In the data set on ob/ob mice [1] (day 0 (pre-treatment)), the “Glucose Day 0” value stood at 246 mg/dL and the “Triglycerides Day 0” value came out at 92 ± 41 mg/dL. In addition, in the data set on ob/ob mice [2] (setting [3]), the “Glucose Day 3, 3 h” value worked out at 312 mg/dL; the “Glucose Day 6, 3 h” value amounted to 291 mg/dL; the “T4 Day 7” value worked out at 0.5 µg/dL; the “Triglycerides Day 3, 3 h” value came to 309 mg/dL. Further, in the data set on ob/ob mice [2] (setting [3]), the “Glucose Day 0” value worked out at 544 mg/dL and the “Triglycerides Day 0” value came out at 261 mg/dL. Moreover, in the data set with ob/ob mice [2] (setting [4]), the “Glucose Day 3, 3 h” value stood at 301 mg/dL; the “Glucose Day 6, 3 h” value was found to be 218 mg/dL; the “T4 Day 7” value came to 2.7 µg/dL; the “Triglycerides Day 3, 3 h” value was 147 mg/dL. Moreover, in the data set on ob/ob mice [2] (setting [4]), the “Glucose Day 0” value stood at 389 mg/dL and the “Triglycerides Day 0” value is 149 mg/dL. Besides, the “serum thyroxine levels (in words)” value in the data set on ob/ob mice [2] (diabetic mammals) is “undesirable side effect of reducing serum thyroxine levels”.

The values above are taken from patent US6887896B1, “7-[(7-Alkoxy)-chrom-3-en-6-yl]-heptatrienoic acid and 7-[(3-alkoxy)-5,6-dihydronaphthalen-2-yl]-heptatrienoic acid derivatives having serum glucose reducing activity” (Allergan, Inc., priority 2003, dated 2005).
